Test results: patent publication US20250296960A1, “PEPTIDE COMPOSITIONS AND METHODS OF USE THEREOF” (priority 2022, published 2025)
Numbered stars: 1 amine (or outer) side, 2 acyl side, 3 side chain; on linkers, the order of the positions; unused ones are H or OH. Square brackets hold non-standard residues; d marks the D form. Side chains are listed from the residue outwards. Ends that are not written are not given here. Peptide text beside a SMILES is read from it. * marks the point of attachment. Biotin = O=C1N[C@H]2[C@H](CS[C@H]2CCCCC(=O)*)N1; C18 diacid = O=C(O)CCCCCCCCCCCCCCCCC(=O)*; γGlu = O=C(O)[C@H](CCC(=O)[*:2])N[*:1]; AEEA = NCCOCCOCC(=O)O; Aib = CC(C)(N)C(=O)O

Key:
human GLP-1R = biological target: T1, human GLP-1R (Homo sapiens, UniProt P43220); assay: cAMP assay (HitHunter cAMP) in GLP-1R-expressing CHO-K1 cells (GLP-1R+ cells); type: cell-based; settings: Table 31
T1 construct: host or cells: CHO-K1
T1 sequence (P43220 24-463): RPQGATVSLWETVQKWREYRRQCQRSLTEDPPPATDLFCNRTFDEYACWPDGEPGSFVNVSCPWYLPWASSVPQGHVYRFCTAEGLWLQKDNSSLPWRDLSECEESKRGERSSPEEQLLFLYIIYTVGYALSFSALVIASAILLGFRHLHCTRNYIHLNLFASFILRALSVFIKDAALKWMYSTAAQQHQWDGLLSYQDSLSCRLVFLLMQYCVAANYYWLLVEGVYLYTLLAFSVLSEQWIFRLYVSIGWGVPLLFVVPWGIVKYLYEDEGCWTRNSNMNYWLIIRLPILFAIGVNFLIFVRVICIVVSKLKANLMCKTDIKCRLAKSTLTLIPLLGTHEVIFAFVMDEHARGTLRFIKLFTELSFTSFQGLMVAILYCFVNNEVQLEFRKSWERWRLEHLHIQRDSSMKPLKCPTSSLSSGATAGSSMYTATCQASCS
Summary of the method: (§1)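 CHO-K1 cells expressing each receptor were plated overnight, then treated with peptide in cAMP assay buffer for 30 min at 37 °C. cAMP was detected by antibody plus detection solution (1 h) and Solution A (3 h), both at room temperature in the dark. Luminescence was the read-out.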

human GCGR = biological target: T2, human GCGR (Homo sapiens, UniProt P47871); assay: cAMP assay (HitHunter cAMP) in GCGR-expressing CHO-K1 cells (GCGR+ cells); type: cell-based; settings: Table 31
T2 construct: host or cells: CHO-K1
T2 sequence (P47871 26-477): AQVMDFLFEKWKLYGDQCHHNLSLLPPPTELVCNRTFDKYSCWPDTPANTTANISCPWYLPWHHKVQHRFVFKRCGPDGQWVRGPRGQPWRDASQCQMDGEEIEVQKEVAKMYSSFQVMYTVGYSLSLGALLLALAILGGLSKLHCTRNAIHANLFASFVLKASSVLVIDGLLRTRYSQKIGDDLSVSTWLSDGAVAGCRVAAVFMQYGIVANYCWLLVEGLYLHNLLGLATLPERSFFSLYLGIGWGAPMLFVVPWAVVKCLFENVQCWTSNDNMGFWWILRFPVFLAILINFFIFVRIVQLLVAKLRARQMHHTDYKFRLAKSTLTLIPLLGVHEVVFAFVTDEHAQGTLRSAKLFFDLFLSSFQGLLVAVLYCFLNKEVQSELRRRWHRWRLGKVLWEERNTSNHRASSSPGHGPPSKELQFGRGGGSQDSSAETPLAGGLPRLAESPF
Summary of the method: as §1

human GIPR = biological target: T3, human GIPR (Homo sapiens, UniProt P48546); assay: cAMP assay (HitHunter cAMP) in GIPR-expressing CHO-K1 cells (GIPR+ cells); type: cell-based; settings: Table 31
T3 construct: host or cells: CHO-K1
T3 sequence (P48546 22-466): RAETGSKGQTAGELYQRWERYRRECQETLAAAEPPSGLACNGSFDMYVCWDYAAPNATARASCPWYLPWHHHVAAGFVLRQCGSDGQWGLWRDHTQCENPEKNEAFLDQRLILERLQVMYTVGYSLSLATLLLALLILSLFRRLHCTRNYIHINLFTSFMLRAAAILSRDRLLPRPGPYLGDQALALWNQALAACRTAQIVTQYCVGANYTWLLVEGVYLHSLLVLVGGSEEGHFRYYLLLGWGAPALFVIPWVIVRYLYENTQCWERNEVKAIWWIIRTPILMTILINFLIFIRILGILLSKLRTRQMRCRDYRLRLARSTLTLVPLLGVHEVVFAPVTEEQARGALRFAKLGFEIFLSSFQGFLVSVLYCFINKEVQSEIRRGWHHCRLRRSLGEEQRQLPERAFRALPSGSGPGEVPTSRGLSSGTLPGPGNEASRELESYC
Summary of the method: as §1

[1] = Body weight loss in high fat diet (HFD) mice, 2 weeks; type: in vivo; settings: 20 nmol/kg s.c. Q2D
Description: This study was conducted to confirm the body weight loss effect and select the peptides to be evaluated in high fat diet (HFD) treated mouse, which is widely used as experimental animal model in obesity and diabetes studies. SEQ ID NOs. The peptides were delivered at 0.02% PS80 in PBS and dosing volume was 10 mL/kg. Body weight changes, blood glucose, and food intake were monitored Q2D. Animals were fasted at least 4 hours prior to blood glucose measurement.

[2] = In vitro enzymatic stability against FaSSIF/P (pancreatin in FaSSIF, pH 6.5); type: in vitro ADME; settings: simulated gi fluid, pH 6.5, Half-life (min)
Description: This study was conducted to determine the enzymatic stability of SEQ ID NOs. 77, 86, 87, 89, 90, and 91 after biotinylation in artificial intestinal environment. The test samples were prepared by mixing stock solutions of peptide and pancreatin dissolved in FaSSIF solution (pH 6.5) in a weight ratio of 25:1. The test samples were incubated at 37° C. for 120 min. The sampling from test samples was proceeded at the predetermined time points (10, 30, 60, and 120 min) and stopped by 10% TFA solution.
Analytical HPLC was performed to determine the remaining amount on an ACQUITY Premier system (Waters, USA) with an ACQUITY CSH C18 column (Waters, USA) at 35° C. using 0.1% TFA in water and acetonitrile. The remaining amount was determined as a percentage of the peak area at the sampling time point relative to the peak area of the initial sample.
For the stability against FaSSIF/P, the test samples were prepared by mixing stock solutions of peptide and pancreatin dissolved in FaSSIF solution (pH 6.5) in a weight ratio of 19:1. The test samples were incubated at 37° C. for 120 min. The sampling from test samples was proceeded at the predetermined time points (10, 30, 60, and 120 min) and stopped by 10% TFA solution.

[3] = biological target: human GLP-1 receptor (GLP-1R), expressed on CHO-K1 cells (human, UniProt P43220 24-463); assay: cell-based or functional assay
[4] = biological target: T4, human glucose-dependent insulinotropic polypeptide receptor (GIPR), expressed on CHO-K1 cells (human, UniProt P48546 22-466); assay: cell-based or functional assay
T4 sequence (looked up): T3 sequence (P48546 22-466)

| Molecule | Ratio vs. GLP-1R, GLP-1R (human GLP-1R) | Relative % to native ligand, GLP-1R (human GLP-1R) [%] | Ratio vs. GLP-1R, GCGR (human GCGR) | Relative % to native ligand, GCGR (human GCGR) [%] | Ratio vs. GLP-1R, GIPR (human GIPR) | Relative % to native ligand, GIPR (human GIPR) [%] | body weight loss effect compared to SEQ ID NO. 77, in words [1] | half-life [2] [min] | EC50 (nM), cAMP assay [3] [nM] | EC50 (nM), cAMP assay [4] [nM] |
| --- | --- | --- | --- | --- | --- | --- | --- | --- | --- | --- |
| CSCC[C@H](NC(=O)[C@H](CCCCNC(=O)CCCC[C@@H]1SC[C@@H]2NC(=O)N[C@@H]21)NC(=O)[C@H](CC(=O)O)NC(=O)[C@H](CC(C)C)NC(=O)[C@H](CC(C)C)NC(=O)[C@H](CCCCNC(=O)COCCOCCNC(=O)COCCOCCNC(=O)CC[C@H](NC(=O)CCCCCCCCCCCCCCCCC(=O)O)C(=O)O)NC(=O)[C@H](CO)NC(=O)[C@H](Cc1ccc(O)cc1)NC(=O)[C@H](CC(=O)O)NC(=O)[C@H](CO)NC(=O)[C@@H](NC(=O)[C@H](Cc1ccccc1)NC(=O)[C@@H](NC(=O)CNC(=O)[C@H](CCC(N)=O)NC(=O)C(C)(C)NC(=O)[C@@H](N)Cc1ccc(O)cc1)[C@@H](C)O)[C@@H](C)O)C(=O)N[C@@H](CCSC)C(=O)N[C@@H](CCC(N)=O)C(=O)N[C@@H](CCCNC(=N)N)C(=O)N[C@@H](CC(=O)O)C(=O)N[C@@H](Cc1ccccc1)C(=O)N[C@H](C(=O)N[C@@H](CCC(N)=O)C(=O)N[C@@H](Cc1c[nH]c2ccccc12)C(=O)N[C@@H](CC(C)C)C(=O)N[C@@H](CC(C)C)C(=O)N[C@@H](CCC(=O)O)C(=O)NCC(=O)NCC(=O)N1CCC[C@H]1C(=O)N[C@@H](CO)C(=O)N[C@@H](CO)C(=O)NCC(=O)N[C@@H](C)C(=O)N1CCC[C@H]1C(=O)N1CCC[C@H]1C(=O)N1CCC[C@H]1C(=O)N[C@@H](CO)C(N)=O)C(C)C [compound 86] (H-Y[Aib]QGTFTSDYSK([AEEA-AEEA-γGlu-C18 diacid])LLDK(Biotin)MMQRDFVQWLLEGGPSSGAPPPS-NH2; N-terminus and C-terminus assumed) | 100 | 90 | 157 | 142 | 639 | 575 | inferior | 25.4 |  |  |
| H[Aib]QGTFTSDYSKYLDYMMARDFVQWLIEGGPSSGAPPPSC [Peptide No. 5 (with C-terminal cysteine)] |  |  |  |  |  |  |  |  | 0.0605 | 13.2 |
